Test results: paper PMC10788915, “Fragment Merging, Growing, and Linking Identify New Trypanothione Reductase Inhibitors for Leishmaniasis” (Journal of Medicinal Chemistry, 2024)
Like-named read-outs stand apart in the source and are kept apart here.

Tests used:
[1] = test system: L. infantum axenic amastigotes; experiment: In vitro inhibition of axenic amastigote growth (MTT); type: cell-based, Leishmania infantum; settings: 72 h, read-out: axenic amastigote EC50 ± SE (95% CI)
Protocol: Axenic amastigote growth inhibition was evaluated using L. infantum strain (MHOM/TN/80/IPT1, WHO international reference strain). Axenic amastigote cultures were obtained as described previously with modifications.[45] Promastigotes were grown in Schneider’s Drosophila medium (SIGMA) containing 10% heat-inactivated fetal calf serum (FCS)(GIBCO-BRL) and 2% gentamicin (50 mg/L)(Sigma) in 25 cm^2 flasks at 22 °C. After 4–5 days, the parasites were adjusted to 1 × 10^6 parasites/mL in axenic medium MAA/20 consisting of modified medium 199 (Gibco BRL) with Hanks’ salts supplemented with 0.5% tryptic soy broth (Sigma), 0.01 mM bathocuproine disulfonic acid, 3 mM L-cysteine, 15 mM D-glucose, 5 mM L-glutamine, 4 mM NaHCO3, 0.023 mM bovine hemin, and 25 mM HEPES to a final pH of 6.5 and supplemented with 20% pretested FCS, and axenic amastigotes were obtained by shifting the incubation conditions: 198 μL of suspension was seeded in triplicate in 96-well flat bottom microplates and incubated at 37 °C, 5% CO2 for 48 h in order to allow the axenization. The amastigote cells were visualized under the light microscope to confirm transformation. Then, 2 μL of the selected compounds with varying concentrations were added: 100, 50, 25, 12.5, 6.25, 3.12, 1.56, 0.8, 0.4, 0.2, 0.1, 0.05 μM. […] Each experiment was conducted in triplicate for each drug concentration, and three independent experiments were performed. To estimate the 50% inhibitory concentration (IC50), the (3-[4.5-dimethylthiazol-2-yl]-2.5-diphenyltetrazolium bromide) (MTT) micromethod was used throughout the experiments with modification. After 72 h of incubation, 30 μL of MTT was added to each well, and the plates were further incubated for 3 h. The absorbance at 550 nm was measured with a 96-well scanner. Antileishmanial activity was expressed as the percentage of inhibition in the number of live parasites compared to that in the control (nontreated parasites). % inhibition was calculated as follows: % growth inhibition = [(absorb cell with drug × 100)/absorb cell control] – 100. Results were analyzed by GraphPad Prism 5.0, dose–response curves were obtained and IC50 deduced (GraphPad Software Inc., San Diego, USA).

[2] = test system: primary murine macrophages; experiment: Cytotoxicity assay on primary murine macrophages (MTT); type: cell-based, Balb/c mice; settings: Balb/c peritoneal macrophages, 72 h, read-out: primary murine macrophage CC50 ± SE (95% CI)
Protocol: (§1) To assess the cytotoxicity of compounds on mammalian macrophages, we tested all the compounds against both human leukemia monocyte cell line (THP-1 cells, ATCC) differentiated into macrophages by treatment with 40 ng/mL of phorbol myristate acetate (PMA; Sigma) for 48 h and peritoneal exudate macrophages harvested from Balb/c mice. […] Cell viability was evaluated using the MTT assay, and the concentration of the compound that produced a 50% reduction of cell viability in treated culture cells with respect to untreated ones (CC50) was determined by GraphPad Prism 5.0 (GraphPad Software Inc., San Diego, USA). […] The selectivity index for each compound was calculated as the ratio of cytotoxicity (CC50) in macrophages cells to activity (IC50) against Leishmania axenic amastigotes. The experiments were performed in triplicate, and two independent experiments were conducted.

[3] = target: T1, Leishmania infantum TR (LiTR) (Leishmania infantum, UniProt A4HSF7); experiment: LiTR enzymatic inhibition assay (NADPH oxidation at 340 nm); type: biochemical; settings: for LiTR residual activity % / remaining activity at 100 µM / remaining activity at 10 µM: mean ± SD, n = 3; for remaining activity at 100 µM / remaining activity at 10 µM: read-out: LiTR residual activity %; for IC50: 50 nM LiTR, 150 μM trypanothione, 100 μM NADPH, 25 °C
T1 construct: The TbTR and LiTR genes were subcloned in a pET28b vector; 6-His (cleaved yes); made in house; host or cells: E. coli BL21(DE3), pET28b
Protocol: (§2) Enzymatic inhibition assays were performed in 50 mM HEPES pH 7.4, 40 mM NaCl at 25 °C using a JASCO V650 spectrophotometer equipped with a JASCO EHC 716 Peltier element to ensure controlled temperature. The first experiment was carried out using 50 nM LiTR, 10 or 100 μM compound to be tested, 150 μM trypanothione (trypanothione disulfide purchased from Bachem), and 100 μM NADPH (tetrasodium salt, purchased from Calbiochem). The best inhibitor candidates were then tested at concentrations ranging from 1 nM to 250 μM to determine the IC50. Assays were initiated upon addition of 100 μM NADPH to 50 nM LiTR or hGR (human glutathione reductase purchased from Sigma-Aldrich) in the presence of different concentration of compounds and 150 μM trypanothione. For both experiments, the oxidation of NADPH was followed as a decrease in absorbance at 340 nm. For each concentration of compound, the initial velocity of the NADPH oxidation was used to determine the percentage of LiTR activity with respect to that in the absence of any compound. The IC50 was determined upon fitting the residual activity of TR as a dose–response logistic equation defined as ymin + (ymax – ymin)/(1 + (x/IC50)^slope). […] The Ki was determined graphically upon linear fitting of data points for each trypanothione concentration. Data analysis was performed with QtiPlot 0.9.8.9 svn 2288, and graphs were made with Matplotlib.
(§3) Figure S3. Inhibition assay of LiTR (red) and hGR (grey) with compounds 5-6, 9-10 and 14.
(§4) Enzymatic assays were carried out at 25°C on a JASCO V650 spectrophotometer equipped with a JASCO EHC716 Peltier unit. Compound concentrations used during the experiments range from 1 […]
(§5) higher than 30 µM and 20 µM, respectively. Briefly, 50 nM LiTR or hGR (Sigma Aldrich) were mixed in 50 mM HEPES pH 7.4, 40 mM NaCl with each compound and 150 µM trypanothione or glutathione. After 3-minute incubation at 25°C, the measurement was initiated upon addition of 100 µM NADPH. The oxidation of NADPH was followed as a decrease in absorbance at 340 nm. Each initial velocity of LiTR enzymatic reaction with the compounds was expressed as a percentage of residual activity with respect to that in the absence of compound. Each data point is the mean of two measurements. The IC50 was determined upon fitting the data as a dose response logistic equation defined by the Kaleidagraph software as ymin+(ymax-ymin)/(1+(x/IC50)^slope).
(§6) (1 picture or pasted object on this page, not shown here)

[4] = test system: human THP-1-derived macrophages; experiment: Cytotoxicity assay on human THP-1-derived macrophages (MTT); type: cell-based; settings: for CC50: 72 h, MTT, read-out: human THP-1-derived macrophage CC50 ± SE (95% CI)
Protocol: as §1

[5] = Cytotoxicity assay on primary murine macrophages (MTT); type: cell-based, Balb/c mice; settings: Balb/c, mouse, primary peritoneal exudate macrophages, read-out: primary murine macrophage CC50 ± SE (95% CI)
Protocol: as §1

[6] = Cytotoxicity assay on human THP-1-derived macrophages (MTT); type: cell-based; settings: human, THP-1 cells differentiated into macrophages with PMA, 72 h, MTT; read-out: human THP-1-derived macrophage CC50 ± SE (95% CI)
Protocol: as §1

[7] = target: T2, hGR (human glutathione reductase) (Homo sapiens, UniProt P00390); experiment: hGR enzymatic inhibition assay (NADPH oxidation at 340 nm); type: biochemical; settings: for IC50: 50 nM hGR, 100 μM NADPH, 25 °C
T2 construct: purchased Sigma-Aldrich
T2 sequence (P00390 44-522): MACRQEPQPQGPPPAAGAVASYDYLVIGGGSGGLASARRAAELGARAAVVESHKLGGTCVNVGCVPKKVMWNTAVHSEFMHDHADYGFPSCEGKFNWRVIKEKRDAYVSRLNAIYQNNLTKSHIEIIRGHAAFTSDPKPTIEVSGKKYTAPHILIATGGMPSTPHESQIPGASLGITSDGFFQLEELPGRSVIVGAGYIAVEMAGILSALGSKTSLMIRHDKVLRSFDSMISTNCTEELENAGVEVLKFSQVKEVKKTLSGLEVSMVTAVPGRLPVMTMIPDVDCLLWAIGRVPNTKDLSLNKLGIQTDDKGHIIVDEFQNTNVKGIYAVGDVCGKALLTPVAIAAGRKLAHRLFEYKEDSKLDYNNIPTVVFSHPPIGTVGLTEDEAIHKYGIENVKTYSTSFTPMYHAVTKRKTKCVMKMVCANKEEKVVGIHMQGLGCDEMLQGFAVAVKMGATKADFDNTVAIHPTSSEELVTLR
Protocol: as §2, §3, §4, §5, §6

[8] = Solubility observed in the enzymatic assay; type: physicochemical; settings: no reliable data at concentrations higher than 30 µM (5) and 20 µM (6)
Protocol: as §3, §4, §5, §6

T1 sequence (A4HSF7 1-491): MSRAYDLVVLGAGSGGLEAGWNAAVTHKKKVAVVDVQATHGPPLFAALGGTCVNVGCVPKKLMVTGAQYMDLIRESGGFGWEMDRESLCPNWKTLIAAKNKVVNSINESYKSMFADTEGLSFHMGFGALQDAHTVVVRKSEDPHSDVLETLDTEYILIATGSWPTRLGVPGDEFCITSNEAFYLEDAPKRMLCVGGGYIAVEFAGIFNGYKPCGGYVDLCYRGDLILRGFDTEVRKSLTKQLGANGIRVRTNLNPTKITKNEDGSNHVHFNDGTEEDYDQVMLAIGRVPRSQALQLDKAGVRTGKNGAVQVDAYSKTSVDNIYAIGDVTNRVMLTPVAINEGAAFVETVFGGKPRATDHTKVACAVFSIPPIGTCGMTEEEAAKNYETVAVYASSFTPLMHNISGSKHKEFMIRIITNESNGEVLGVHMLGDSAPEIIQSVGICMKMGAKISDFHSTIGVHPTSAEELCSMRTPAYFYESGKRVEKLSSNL

Compound	EC50 [1] [µM]	CC50 [2] [µM]	LiTR residual activity % ([3]; compound at 10 μM)	SI = human THP-1-derived macrophage CC50/axenic amastigote EC50 [4]	CC50 [4] [µM]	EC50 ([1]; Leishmania infantum) [µM]	CC50 at 72 h [5] [µM]	remaining activity at 100 µM ([3]; compound at 100 μM) [%]	CC50 at 72 h [6] [µM]	IC50 [7] [µM]	SI (ratio of GR IC50/TR IC50) ([7]; hGR versus LiTR)	IC50 [3] [µM]	decrease in TR activity ([3]; compound at 100 μM) [%]	LiTR residual activity % ([3]; compound at 100 μM, 100 µM)	solubility in the enzymatic assay [8]	gain in LiTR IC50 with respect to 5 ([3]; compared to compound 5 (IC50 54.6 μM))	remaining activity at 10 µM ([3]; compound at 10 μM) [%]
4-(3,4-Dichlorobenzyl)-N-(4-fluorophenyl)-N-((5-(phenethylcarbamoyl)furan-2-yl)methyl)piperazine-1-carboxamide [Compound 8]	10.3 ± 0.9	14.4 ± 1.6	94.1 ± 4.9 @10 μM %	1.1	11.7 ± 1.6												
O=C(Nc1ccc(F)cc1)N1CCN(CCCc2ccccc2)CC1 [Compound 4, N-(4-Fluorophenyl)-4-(3-phenylpropyl)piperazine-1-carboxamide]				0.8		11.5 ± 2.1	12.9 ± 0.9	96.7 ± 6.1	9.6 ± 0.71								
O=C(NCCc1ccc(F)cc1)c1ccc(CN(C(=O)N2CCN(CCCc3ccccc3)CC2)c2ccc(F)cc2)o1 [Compound 5, N-((5-((4-Fluorophenethyl)carbamoyl)furan-2-yl)methyl)-N-(4-fluorophenyl)-4-(3-phenylpropyl)piperazine-1-carboxamide]	12 ± 1.7	9.1 ± 0.9		0.8	6.5 ± 0.6	11.5 ± 2.1	12.9 ± 0.9	64.9	9.6 ± 0.71	163 ± 58.8	3	54.6 ± 20.9	35.1	65.4 ± 3.0 @100 μM %	low solubility		
O=C(NCCc1ccc(F)cc1)c1ccc(CN(C(=O)N2CCN(CCCN3c4ccccc4Sc4ccc(Cl)cc43)CC2)c2ccc(F)cc2)o1 [Compound 6, 4-(3-(2-Chloro-10H-phenothiazin-10-yl)propyl)-N-((5-((4-fluorophenethyl)carbamoyl)furan-2-yl)methyl)-N-(4-fluorophenyl)piperazine-1-carboxamide]	13 ± 1.5					12 ± 1.7				9.6 ± 1.4		21.7 ± 4.4			low solubility	more than 2 fold	46.9 ± 18
O=C(O)c1ccc(N(Cc2ccc(C(=O)NCCc3ccc(F)cc3)o2)C(=O)N2CCN(CCCc3ccccc3)CC2)cc1 [Compound 11, 4-(N-((5-((4-Fluorophenethyl)carbamoyl)furan-2-yl)methyl)-4-(3-phenylpropyl)piperazine-1-carboxamido)benzoic Acid]				>2		25.6 ± 7.4	> 50		> 50								74.5 ± 9.3
O=C(NCCc1ccc(F)cc1)c1ccc(CNC(=O)N2CCN(CCCc3ccccc3)CC2)o1 [Compound 12, N-((5-((4-Fluorophenethyl)carbamoyl)furan-2-yl)methyl)-4-(3-phenylpropyl)piperazine-1-carboxamide]				2.7		14.1 ± 1.3	26.7 ± 4.5		37.6 ± 13.8								74.6 ± 9.3
O=C(NCCc1ccc(F)cc1)c1ccc(CNC(=O)N2CCN(Cc3ccc(Cl)c(Cl)c3)CC2)o1 [Compound 13, 4-(3,4-Dichlorobenzyl)-N-((5-((4-fluorophenethyl)carbamoyl)furan-2-yl)methyl)piperazine-1-carboxamide]				1.9		11.2 ± 0.7	12.6 ± 0.9		21 ± 3.1								89.2 ± 4.9
N-((5-((4-Fluorophenethyl)carbamoyl)furan-2-yl)methyl)-N-(4-fluorophenyl)-4-(3-(2-(trifluoromethyl)-10H-phenothiazin-10-yl)propyl)piperazine-1-carboxamide [Compound 7]	13 ± 1.5		70.8 ± 5.9 @10 μM %	1.8	23.4 ± 4.6												
